Laboratory results taken from patent publication US8247211B2, “Glycopeptide antibiotics” (American Cyanamid Company, priority 2001, dated 2012).

Columns and labels:
[1] = assay type: in vivo; settings: mice, 20 mg/kg intravenously daily for 9 days, serum on day 10
Procedure: 20-day-old CD-1 mice were divided into a vehicle control group (5 mice) and a treatment group (5 mice). Samples of glycopeptide antibiotics were administered at 20 mg/kg intravenously daily for 9 days. Animals were necropsied on day 10 Sera were analyzed for BUN (blood urea nitrogen), creatinine, AST (aspartic aminotransferase), and ALT (alanine aminotransferase) by routine, standard, automated methods using an Hitachi 747 chemistry analyzer.

[2] = tested on: Staphylococcus aureus-SMITH (GC 4543); experiment: Acute lethal infection in mice (ED50); assay type: in vivo; settings: female CD-1 mice, intraperitoneal challenge, intravenous dose 30 min. after infection, 7 day survival ratios
How it was run: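 Bacteria suspended in Trypticase Soy Broth or hog gastric mucin are injected intraperitoneally into female CD-1 mice at a dose killing untreated animals within 24-48 hr. Thirty minutes later, test agent is administered intravenously. Survival at day 7 is scored.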

[3] = Anatomic pathology (heart and kidney histopathology) in mice; assay type: in vivo, CD-1 mice; settings: 20 mg/kg intravenously daily for 9 days, microscopic histopathology on day 10
How it was run: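 Histopathology on H&E-stained, paraffin-embedded sections, subjectively scored (slight, mild, moderate, marked, severe) relative to untreated controls. Dosing: glycopeptide antibiotics 20 mg/kg intravenously once daily ×9 days in 20-day-old CD-1 mice, n=5 per group including vehicle.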

Streptococcus sp. = experiment: In vitro antibacterial evaluation: minimum inhibitory concentration (MIC), broth dilution method; assay type: cell-based
How it was run: (§1)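 Test strains, among them recent clinical isolates carrying methicillin, penicillin and/or vancomycin resistance, were inoculated at 5×10^5 CFU/mL. A broth dilution series spanning 64-0.06 μg/mL in Muller-Hinton II […] (NCCLS M7-A2) defined the MIC as the lowest growth-inhibiting concentration.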

Staphylococcus sp. = experiment: as above; assay type: cell-based; settings: broth dilution, 18 hours at 35° C.
How it was run: as §1

Enterococcus sp. = experiment: as above; assay type: cell-based
How it was run: as §1

Escherichia coli = experiment: as above; assay type: cell-based; settings: strain GC 4560
How it was run: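 Broth dilution per NCCLS M7-A2 in Muller-Hinton II […], inoculum 5×10^5 CFU/mL, antibiotic tested over 64-0.06 μg/mL. MIC is taken as the lowest concentration that inhibits growth. Panel includes recent clinical isolates resistant to methicillin, penicillin and/or vancomycin.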

CC(c1ccccc1)C1NC(=O)CNC(=O)C(CO)NC(=O)C(C(O)C2CN(Cc3ccc(-c4ccccc4)cc3)C(=N)N2C2OC(CO)C(O)C(O)C2O)NC(=O)C(C(O)C2CNC(=NCc3ccc(-c4ccccc4)cc3)N2Cc2ccc(-c3ccccc3)cc2)NC(=O)C(Cc2ccc(OC3OC(CO)C(OC4OC(CO)C(O)C(O)C4O)C(O)C3O)cc2)NC1=O (stereo not shown) [Example 66]
4 mg/L: MIC Coagulase Negative Staphylococcus (GC 4547) (Staphylococcus sp.) | MIC Coagulase Negative Staphylococcus (GC 4549) (Staphylococcus sp.) | MIC Coagulase Negative Staphylococcus (GC 6257) (Staphylococcus sp.) | MIC Staphylococcus aureus (GC 4545) (Staphylococcus sp.) | MIC Staphylococcus haemolyticus (GC 4546) (Staphylococcus sp.) | MIC Staphylococcus aureus (GC 4545) (Staphylococcus sp.; strain GC 4545) | MIC Coagulase Negative Staphylococcus (GC 4547) (Staphylococcus sp.; strain GC 4547) | MIC Coagulase Negative Staphylococcus (GC 4549) (Staphylococcus sp.; strain GC 4549) | MIC Coagulase Negative Staphylococcus (GC 6257) (Staphylococcus sp.; strain GC 6257) | MIC Enterococcus avium (GC 4558) (Enterococcus sp.; Enterococcus avium (GC 4558), broth dilution, 18 hours at 35° C.) | MIC Enterococcus faecium (GC 4557) (Enterococcus sp.; Enterococcus faecium (GC 4557), broth dilution, 18 hours at 35° C.) | MIC Enterococcus faecium (GC 4557) (Enterococcus sp.; strain GC 4557) | MIC Enterococcus avium (GC 4558) (Enterococcus sp.; strain GC 4558) | MIC Escherichia coli (GC 4560) (Escherichia coli)
16 mg/L: MIC Streptococcus pyogenes (GC 4563) (Streptococcus sp.; Streptococcus pyogenes (GC 4563), broth dilution, 18 hours at 35° C.) | MIC Streptococcus pyogenes (GC 4563) (Streptococcus sp.; strain GC 4563) | MIC Staphylococcus aureus (GC 1131) (Staphylococcus sp.) | MIC Staphylococcus aureus (GC 1131) (Staphylococcus sp.; strain GC 1131) | MIC Enterococcus faecalis (ATCC 29212) (Enterococcus sp.; Enterococcus faecalis (ATCC 29212), broth dilution, 18 hours at 35° C.) | MIC Enterococcus faecalis (GC 2242) (Enterococcus sp.; Enterococcus faecalis (GC 2242), broth dilution, 18 hours at 35° C.) | MIC Enterococcus faecalis (ATCC 29212) (Enterococcus sp.; strain ATCC 29212) | MIC Enterococcus faecalis (GC 2242) (Enterococcus sp.; strain GC 2242)
64 mg/L: MIC Streptococcus pneumoniae (GC 4565) (Streptococcus sp.; Streptococcus pneumoniae (GC 4565), broth dilution, 18 hours at 35° C.) | MIC Streptococcus pneumoniae (GC 4565) (Streptococcus sp.; strain GC 4565) | MIC Enterococcus faecalis (GC 4554) (Enterococcus sp.; Enterococcus faecalis (GC 4554), broth dilution, 18 hours at 35° C.) | MIC Enterococcus faecalis (GC 4554) (Enterococcus sp.; strain GC 4554)
8 mg/L: MIC Coagulase Negative Staphylococcus (GC 4548) (Staphylococcus sp.) | MIC Coagulase Negative Staphylococcus (GC 4551) (Staphylococcus sp.) | MIC Staphylococcus aureus (ATCC 29213) (Staphylococcus sp.) | MIC Staphylococcus aureus (GC 3051) (Staphylococcus sp.) | MIC Staphylococcus aureus (GC 3053) (Staphylococcus sp.) | MIC Staphylococcus aureus (GC 4541) (Staphylococcus sp.) | MIC Staphylococcus aureus (GC 4542) (Staphylococcus sp.) | MIC Staphylococcus aureus (GC 4544) (Staphylococcus sp.) | MIC Staphylococcus aureus SMITH (GC 4543) (Staphylococcus sp.) | MIC Staphylococcus aureus (ATCC 29213) (Staphylococcus sp.; strain ATCC 29213) | MIC Staphylococcus aureus (GC 3051) (Staphylococcus sp.; strain GC 3051) | MIC Staphylococcus aureus (GC 3053) (Staphylococcus sp.; strain GC 3053) | MIC Staphylococcus aureus (GC 4541) (Staphylococcus sp.; strain GC 4541) | MIC Staphylococcus aureus (GC 4542) (Staphylococcus sp.; strain GC 4542) | MIC Staphylococcus aureus (GC 4544) (Staphylococcus sp.; strain GC 4544) | MIC Coagulase Negative Staphylococcus (GC 4548) (Staphylococcus sp.; strain GC 4548) | MIC Coagulase Negative Staphylococcus (GC 4551) (Staphylococcus sp.; strain GC 4551) | MIC Staphylococcus aureus-SMITH (GC 4543) (Staphylococcus sp.; strain SMITH GC 4543) | MIC Enterococcus faecalis (GC 4553) (Enterococcus sp.; Enterococcus faecalis (GC 4553), broth dilution, 18 hours at 35° C.) | MIC Enterococcus faecium (GC 2243) (Enterococcus sp.; Enterococcus faecium (GC 2243), broth dilution, 18 hours at 35° C.) | MIC Enterococcus faecium (GC 2243) (Enterococcus sp.; strain GC 2243) | MIC Enterococcus faecalis (GC 4553) (Enterococcus sp.; strain GC 4553)
182%: Clinical Chemistry (Day 10) % of Control, ALT [1]
>8: median effective dose (ED50), Staphylococcus aureus-SMITH (GC 4543) [2]
32 mg/L: MIC Streptococcus agalactiae (GC 4564) (Streptococcus sp.; Streptococcus agalactiae (GC 4564), broth dilution, 18 hours at 35° C.) | MIC Streptococcus pneumoniae (ATCC 6301) (Streptococcus sp.; Streptococcus pneumoniae (ATCC 6301), broth dilution, 18 hours at 35° C.) | MIC Streptococcus pneumoniae (GC 1894) (Streptococcus sp.; Streptococcus pneumoniae (GC 1894), broth dilution, 18 hours at 35° C.) | MIC Streptococcus pneumoniae (ATCC 6301) (Streptococcus sp.; strain ATCC 6301) | MIC Streptococcus pneumoniae (GC 1894) (Streptococcus sp.; strain GC 1894) | MIC Streptococcus agalactiae (GC 4564) (Streptococcus sp.; strain GC 4564) | MIC Enterococcus faecalis (GC 2691) (Enterococcus sp.; Enterococcus faecalis (GC 2691), broth dilution, 18 hours at 35° C.) | MIC Enterococcus faecalis (GC 3059) (Enterococcus sp.; Enterococcus faecalis (GC 3059), broth dilution, 18 hours at 35° C.) | MIC Enterococcus faecalis (GC 4552) (Enterococcus sp.; Enterococcus faecalis (GC 4552), broth dilution, 18 hours at 35° C.) | MIC Enterococcus faecalis (GC 6189) (Enterococcus sp.; Enterococcus faecalis (GC 6189), broth dilution, 18 hours at 35° C.) | MIC Enterococcus faecium (GC 4556) (Enterococcus sp.; Enterococcus faecium (GC 4556), broth dilution, 18 hours at 35° C.) | MIC Enterococcus faecalis (GC 2691) (Enterococcus sp.; strain GC 2691) | MIC Enterococcus faecalis (GC 3059) (Enterococcus sp.; strain GC 3059) | MIC Enterococcus faecalis (GC 4552) (Enterococcus sp.; strain GC 4552) | MIC Enterococcus faecium (GC 4556) (Enterococcus sp.; strain GC 4556) | MIC Enterococcus faecalis (GC 6189) (Enterococcus sp.; strain GC 6189)
147%: Clinical Chemistry (Day 10) % of Control, AST [1]
0: Anatomical Pathology (Day 10), Heart [3] | Anatomical Pathology (Day 10), Kidney [3]

CC(c1ccccc1)C1NC(=O)CNC(=O)C(CO)NC(=O)C(CC2CNC(=N)N2C2OC(CO)C(O)C(O)C2O)NC(=O)C(CC2CNC(=N)N2)NC(=O)C(Cc2ccc(OC3OC(CO)C(OC4OC(CO)C(O)C(O)C4O)C(O)C3O)cc2)NC1=O (stereo not drawn) [Example 277a, Cyclo[3-(2-iminoimidazolidin-4-yl)alanyl-3-(3-hexopyranosyl-2-iminoimidazolidin-4-yl)-alanylserylglycyl-β-methylphenylalanyl-O-(4-O-hexopyranosylhexopyranosyl]tyrosyl]]
++: Anatomical Pathology (Day 10), Kidney [3]
>8: median effective dose (ED50), Staphylococcus aureus-SMITH (GC 4543) [2]
0: Anatomical Pathology (Day 10), Heart [3]
+110%: Clinical Chemistry (Day 10) % of Control, BUN [1]
